Reference: US8088791B2, “Antibacterial agents” (Biots Scientific Management Pty Ltd, priority 2006, dated 2012)
≈ marks a conversion by molar mass, not a printed value. Where two headings read alike, the source gives them in different places.

Key:
Bacillus subtilis 168CA = assay: Minimum Inhibitory Concentration (MIC) testing, broth microdilution, Bacillus subtilis; assay type: cell-based; settings: for MIC: read-out: Bacillus subtilis MICs Activity
Protocol: (§1) Compounds of this invention were tested for antimicrobial activity by susceptibility testing in liquid media. MICs for compounds against each strain were determined by a broth microdilution method according to the National Committee for Clinical Laboratory Standards (NCCLS) guidelines. (NCCLS. 2000. Methods for dilution antimicrobial susceptibility tests for bacteria that grow aerobically—fifth edition. Approved standard M7-A5. NCCLS, Wayne, Pa.)
(§2) Briefly, test compounds are prepared in 100 μl of 1.6% DMSO solution in multiwell plates. Several bacterial colonies from a freshly streaked plate are transferred to an appropriate rich broth, such as Mueller Hinton. The cell suspension is adjusted to an optical density of 0.09 and further diluted 1:100 with warm 2× broth. This cell suspension is dispensed into the wells containing compound solution so that the final volume is 200 μl. The plates are incubated overnight (16-20 hours) at 37° C. and turbidity is scored by eye and quantified spectrophotometrically. The MIC is defined as the lowest concentration inhibiting visible growth.
Activities were scored as ‘A’ if the MIC was ≦8 micrograms/ml, ‘B’ if the MIC was 16 to 64 micrograms/ml and ‘C’ if the MIC was greater than 64 micrograms/ml.

[1] = system: Staphylococcus aureus ATCC29213; assay: Minimum Inhibitory Concentration (MIC) testing, broth microdilution, Staphylococcus aureus; assay type: cell-based; settings: Staphylococcus aureus ATCC29213; for MIC: read-out: Staphylococcus aureus MICs Activity
Protocol: as §1, §2
Some of the compounds of the Examples were also tested for activity against the pathogenic organism Staphylococcus aureus ATCC29213. […] Activities were again scored as ‘A’ if the MIC was ≦8 micrograms/ml, ‘B’ if the MIC was 16 to 64 micrograms/ml and ‘C’ if the MIC was greater than 64 micrograms/ml.

Row | SMILES | MIC (Bacillus subtilis 168CA; Bacillus subtilis, 168CA) [µg/mL] | MIC [1] [µg/mL] | MIC (Bacillus subtilis 168CA; Bacillus subtilis 168CA) [µg/mL] | Bacillus subtilis MICs Activity (Bacillus subtilis 168CA; Bacillus subtilis 168CA) | Staphylococcus aureus MICs Activity [1]
1 | NC(=O)c1c(F)ccc(OCc2nc3cc(C4=CCCC4)ccc3s2)c1F [Example 316] | < 8 | < 8 |  |  | 
2 | COc1cccc(-c2noc(COc3ccc(F)c(C(N)=O)c3F)n2)c1 [Example 256, 2,6-Difluoro-3-[3-(3-methoxyphenyl)-1,2,4-oxadiazol-5-yl]methoxybenzenecarboxamide] |  | 16 to 64 (≈ 44.3 to 177 µM) | < 8 |  | 
3 | NC(=O)c1c(F)ccc(OCc2cccc(OC(F)(F)F)c2)c1F [Example 107, 2,6-Difluoro-3-(3-trifluoromethoxybenzyloxy)benzamide] |  | < 8 | < 8 |  | 
4 | NC(=O)c1c(F)ccc(OCc2csc(-c3ccc(O)cc3)n2)c1F [Example 304, 2,6-Difluoro-3-[2-(4-hydroxy-phenyl)-thiazol-4-ylmethoxy]-benzamide] |  | < 8 | < 8 |  | 
5 | NC(=O)c1c(F)ccc(OCc2noc(-c3ccsc3)n2)c1F [Example 150, 2,6-Difluoro-3-(5-thiophen-3-yl-[1,2,4]oxadiazol-3-ylmethoxy)-benzamide] |  | 16 to 64 (≈ 47.4 to 190 µM) | < 8 |  | 
6 | CC/C=C\CCCCOc1cccc(C(N)=O)c1 [Example 52, 3-[(Z)-5-Octenyloxy]benzenecarboxamide] |  | < 8 | < 8 |  | 
7 | NC(=O)c1c(F)ccc(OCc2nnc(C3CC3)s2)c1F [Example 138, 3-(5-Cyclopropyl-[1,3,4]thiadiazol-2-ylmethoxy)-2,6-difluoro-benzamide] |  | > 64 | > 64 |  | 
8 | NC(=O)c1c(F)ccc(OCc2ccsc2)c1F [Example 188, 2,6-Difluoro-3-(3-thienylmethoxy)benzenecarboxamide] |  | 16 to 64 (≈ 59.4 to 238 µM) | 16 to 64 (≈ 59.4 to 238 µM) |  | 
9 | COc1ccc(-c2nc(COc3ccc(F)c(C(N)=O)c3F)sc2-c2cscn2)cc1 [Example 288, 2,6-Difluoro-3-[4′-(4-methoxy-phenyl)-[4,5′]bithiazolyl-2′-ylmethoxy]-benzamide] |  | < 8 | < 8 |  | 
10 | CCCCCOc1cccc(C(N)=O)c1 [Example 5, 3-(Pentyloxy)benzenecarboxamide] |  | 16 to 64 (≈ 77.2 to 309 µM) | 16 to 64 (≈ 77.2 to 309 µM) |  | 
11 | CC(C)c1ccc(-c2noc(COc3ccc(F)c(C(N)=O)c3F)n2)cc1 [Example 248, 2,6-Difluoro-3-[3-(4-isopropylphenyl)-1,2,4-oxadiazol-5-yl]methoxybenzenecarboxamide] |  | < 8 | < 8 |  | 
12 | NC(=O)c1c(Cl)ccc(OCc2nc3cc(Cl)ccc3s2)c1F [Example 220, 6-Chloro-3-[(5-chloro-1,3-benzothiazol-2-yl)methoxy]-2-fluorobenzenecarboxamide] |  | < 8 | < 8 |  | 
13 | CCCCCOCCOc1cccc(C(N)=O)c1 [Example 53, 3-[2-(Pentyloxy)ethoxy]benzenecarboxamide] |  | > 64 | > 64 |  | 
14 | Cc1csc(COc2ccc(F)c(C(N)=O)c2F)n1 [Example 193, 2,6-Difluoro-3-[(4-methyl-1,3-thiazol-2-yl)methoxy]benzenecarboxamide] |  | 16 to 64 (≈ 56.3 to 225 µM) | 16 to 64 (≈ 56.3 to 225 µM) |  | 
15 | CC(Oc1ccc(F)c(C(N)=O)c1F)c1nc2cc(Cl)ccc2s1 (stereo not shown) [Example 124, 3-[1-(5-Ohloro-benzothiazol-2-yl)-ethoxy]-2,6-difluoro-benzamide] |  |  |  | A (‘A’ if the MIC was ≦8 micrograms/ml) | A (‘A’ if the MIC was ≦8 micrograms/ml)
16 | CC/C=C\CCCCCOc1ccc(F)c(C(N)=O)c1F [Example 86, 2,6-Difluoro-3-[(Z)-6-nonenyloxy]benzenecarboxamide] |  | < 8 | < 8 |  | 
17 | NC(=O)c1c(F)ccc(OCc2nc(-c3ccccc3Cl)cs2)c1F [Example 99, 3-[4-(2-Chloro-phenyl)-thiazol-2-ylmethoxy]-2,6-difluoro-benzamide] |  | < 8 | < 8 |  | 
18 | CCCCCCOc1ccc(F)c(C(N)=O)c1F [Example 81, 2,6-Difluoro-3-(hexyloxy)benzenecarboxamide] |  | < 8 | < 8 |  | 
19 | CCCCCCOc1cccc(C(N)=O)c1F [Example 165, 2-Fluoro-3-Hexoxy-benzamide] |  | < 8 | < 8 |  | 
20 | CCCCCCOc1cccc(C(N)=O)c1O [Example 166, 2-Hydroxy-3-Hexoxy-benzamide] |  | > 64 | > 64 |  | 
21 | Cc1oc(-c2ccc(Cl)cc2)nc1COc1ccc(F)c(C(N)=O)c1F [Example 297, 3-[2-(4-Chloro-phenyl)-5-methyl-oxazol-4-ylmethoxy]-2,6-difluoro-benzamide] |  | < 8 | < 8 |  | 

Row | SMILES | MIC (Bacillus subtilis 168CA; Bacillus subtilis, 168CA) [µg/mL] | MIC [1] [µg/mL] | MIC (Bacillus subtilis 168CA; Bacillus subtilis 168CA) [µg/mL] | Bacillus subtilis MICs Activity (Bacillus subtilis 168CA; Bacillus subtilis 168CA) | Staphylococcus aureus MICs Activity [1]
22 | Cc1ccc2nc(COc3ccc(F)c(C(N)=O)c3F)oc2c1 [Example 211, 2,6-Difluoro-3-[(6-methyl-1,3-benzoxazol-2-yl)methoxy]benzenecarboxamide] |  | 16 to 64 (≈ 50.3 to 201 µM) | < 8 |  | 
23 | Cc1ccccc1-c1nc(COc2ccc(F)c(C(N)=O)c2F)sc1Br [Example 130] |  | < 8 | < 8 |  | 
24 | NC(=O)c1c(F)ccc(OCc2nc3cc([N+](=O)[O-])ccc3o2)c1F [Example 214, 2,6-Difluoro-3-[(5-nitro-1,3-benzoxazol-2-yl)methoxy]benzenecarboxamide] |  | 16 to 64 (≈ 45.8 to 183 µM) | 16 to 64 (≈ 45.8 to 183 µM) |  | 
25 | CCCCCC/C=C/COc1ccc(F)c(C(N)=O)c1 [Example 74, 2-Fluoro-5-[(E)-2-nonenyloxy]benzenecarboxamide] |  | < 8 | < 8 |  | 
26 | COC(=O)c1cccc(COc2ccc(F)c(C(N)=O)c2F)c1 [Example 108, 3-(3-Carbamoyl-2,4-difluoro-phenoxymethyl)-benzoic acid methyl ester] |  | 16 to 64 (≈ 49.8 to 199 µM) | 16 to 64 (≈ 49.8 to 199 µM) |  | 
27 | NC(=O)c1c(F)ccc(OCc2nc3cc(F)ccc3s2)c1F [Example 216, 2,6-Difluoro-3-[(5-fluoro-1,3-benzothiazol-2-yl)methoxy]benzenecarboxamide] |  | < 8 | < 8 |  | 
28 | N#Cc1ccc(-c2nc(COc3ccc(F)c(C(N)=O)c3F)sc2Br)cc1 [Example 291, 3-[5-Bromo-4-(4-cyano-phenyl)-thiazol-2-ylmethoxy]-2,6-difluoro-benzamide] |  | < 8 | < 8 |  | 
29 | Cc1nc(COc2ccc(F)c(C(N)=O)c2F)cs1 [Example 190, 2,6-Difluoro-3-[(2-methyl-1,3-thiazol-4-yl)methoxy]benzenecarboxamide] |  | 16 to 64 (≈ 56.3 to 225 µM) | 16 to 64 (≈ 56.3 to 225 µM) |  | 
30 | NC(=O)c1c(F)ccc(OCc2nc(-c3ccc(C(F)(F)F)cc3)no2)c1F [Example 243, 2,6-Difluoro-3-(3-[4-(trifluoromethyl)phenyl]-1,2,4-oxadiazol-5-ylmethoxy)benzenecarboxamide] |  | < 8 | < 8 |  | 
31 | CCCc1sc(COc2ccc(F)c(C(N)=O)c2F)nc1-c1ccc(OC)cc1 [Example 118, 2,6-Difluoro-3-[4-(4-methoxy-phenyl)-5-propyl-thiazol-2-ylmethoxy]-benzamide] |  | < 8 | < 8 |  | 
32 | Cc1cnc(COc2ccc(F)c(C(N)=O)c2F)s1 [Example 192, 2,6-Difluoro-3-[(5-methyl-1,3-thiazol-2-yl)methoxy]benzenecarboxamide] |  | > 64 | > 64 |  | 
33 | NC(=O)c1c(F)ccc(OCc2csc(-c3ccc(Cl)cc3)n2)c1F [Example 306, 3-[2-(4-Chloro-phenyl)-thiazol-4-ylmethoxy]-2,6-difluoro-benzamide] |  | < 8 | < 8 |  | 
34 | COc1ccc(-c2nc(COc3ccc(F)c(C(N)=O)c3F)sc2-c2ccncc2)cc1 [Example 127, 2,6-Difluoro-3-[4-(4-methoxy-phenyl)-5-pyridin-4-yl-thiazol-2-ylmethoxy]-benzamide] |  | < 8 | < 8 |  | 
35 | CCCCCCOc1c(F)ccc(C(N)=O)c1F [Example 80, 2,4-Difluoro-3-(hexyloxy)benzenecarboxamide] |  | 16 to 64 (≈ 62.2 to 249 µM) | 16 to 64 (≈ 62.2 to 249 µM) |  | 
36 | NC(=O)c1c(F)ccc(OCc2nc(-c3ccc(F)cc3)cs2)c1F [Example 318, 2,6-Difluoro-3-[4-(4-fluoro-phenyl)-thiazol-2-ylmethoxy]-benzamide] |  | < 8 | < 8 |  | 
37 | NC(=O)c1c(F)ccc(OCCCCO)c1F [Example 178, 2,6-Difluoro-3-(4-hydroxybutoxy)benzenecarboxamide] |  | 16 to 64 (≈ 65.2 to 261 µM) | 16 to 64 (≈ 65.2 to 261 µM) |  | 
38 | Cc1ccccc1-c1noc(COc2ccc(F)c(C(N)=O)c2F)n1 [Example 252, 2,6-Difluoro-3-[3-(2-methylphenyl)-1,2,4-oxadiazol-5-yl]methoxybenzenecarboxamide] |  | < 8 | < 8 |  | 
39 | NC(=O)c1c(F)ccc(OCc2ccco2)c1F [Example 183, 2,6-Difluoro-3-(2-furylmethoxy)benzenecarboxamide] |  | 16 to 64 (≈ 63.2 to 253 µM) | 16 to 64 (≈ 63.2 to 253 µM) |  | 
40 | COc1ccc2ccc(COc3ccc(F)c(C(N)=O)c3F)nc2c1 [Example 98, 2,6-Difluoro-3-(7-methoxy-quinolin-2-ylmethoxy)-benzamide] |  | < 8 | < 8 |  | 
41 | Cc1cccc(COc2ccc(F)c(C(N)=O)c2F)c1F [Example 128, 2,6-Difluoro-3-(2-fluoro-3-methyl-benzyloxy)-benzamide] |  | 16 to 64 (≈ 54.2 to 217 µM) | < 8 |  | 
